Data on 11 compounds can be found in publication PMC6270814, “Effects of Ursolic Acid Derivatives on Caco-2 Cells and Their Alleviating Role in Streptozocin-Induced Type 2 Diabetic Rats” (Molecules, 2014).

For assay [1], the system named is Caco-2 cells. As to the kind of experiment: MTT cytotoxicity assay on Caco-2 cells. The settings on record: Homo sapiens, 24 h, mean ± SD, n = 4, read-out: Inhibition Rate %. The format is cell-based, Human. As for the experimental part:
Human intestinal Caco-2 cells (ATCC, Rockville, MD, USA) were incubated at 37 °C in a humidified atmosphere of 5% CO2 in air. The cells were cultured in Dulbecco’s […] medium (DMEM) with 10% heat-inactivated fetal bovine serum, 1% non-essential amino acids, 1% L-glutamine, 1% penicillin/streptomycin (Gibco Life Technologies, Grand Island, NY, USA). The cells were sub-cultured at confluence by 0.05% trypsin-0.5 mM EDTA treatment before they were applied in the experiment.
A MTT test was conducted to determine the possible toxicity of UA and its derivatives to Caco-2 cells. Briefly, cells were seeded at a density of 1 × 10^4 cells/mL in a 96-well plate and incubated for 24 h. The next day, cells were incubated with vehicle (0.1% DMSO) and compounds at 100, 50, 25, 12.5 μmol/L for 24 h, and then 5 g/L MTT solution (20 μL) was added for 4 h. Absorbance at 570 nm was measured using a Multimodel Plate Reader (Infinite 200, Tecan, Mannedorf, Switzerland).
For orientation: Formazan colour is commonly taken as a measure of viable cells.

Assay [2] deals with Caco-2 cells. As to the kind of experiment: 2-NBDG glucose uptake by Caco-2 cell monolayers, Na+-independent (sodium free buffer). Format: cell-based, Human. Conditions: 100 μM compound, Na+-independent (KCl/K2HPO4 buffer). The method, then: Caco-2 cells, which were derived from human colon adenocarcinoma, were selected for intestinal absorption studies because these cells express the morphological characteristics and most of the functional properties of differentiated small-intestinal enterocytes. Caco-2 cells were seeded on 24-well plates at the density of 2 × 10^5 cells/well. The medium was changed every 1–2 days, and the culture was carried out for 13 days. Then Caco-2 cells were placed in serum-free media for 24 h and then they were washed twice with Hanks’ balanced salt solution (HBSS, pH 7.5, 140 mM NaCl, 5 mM KCl, 1.2 mM Na2HPO4, 2 mM CaCl2, 1.2 mM MgSO4, 20 mM HEPES, 0.2% bovine serum albumin) before the uptake studies. When a sodium free buffer was required, NaCl and Na2HPO4 were replaced with equal amounts of KCl and K2HPO4, respectively. After washing, the cells were incubated for 15 min at room temperature in HBSS before the commencement of this experiment. The uptake studies were initiated by adding HBSS containing either control or test solution (100 μM) and […] (100 μM) for 30 min at 37 °C. Glucose uptake was stopped by adding twofold volume of ice-cold PBS and the wells were washed with ice-cold PBS three times. Fluorescent intensity was measured by a Multimodel Plate Reader (Tecan Infinity 200) with the 485 nmex and 535 nmemiss filter set before and after adding 2-NBDG. Then the cells were lysed in 200 μL lysis buffer (10 mM Tris-HCl pH = 7.4, 150 mM NaCl, 1% Triton-x-100, 1 mM EDTA, 0.1% SDS) and supplemented immediately before they were processed with 10 μg/mL PMSF. Cells were allowed to lyse on ice, and then vortexed and sonicated. The lysate was used for protein determination, protein concentrations were determined as described by BCA kit (Boster, Wuhan, China) with bovine serum albumin as standard.

Assay [3] concerns STZ-induced diabetic rats. Put plainly: Fasting blood glucose in STZ-induced diabetic rats, 4 weeks treatment. The settings on record: for Fasting Blood Glucose Level, Week 0: Week 0 (before treatment); for Fasting Blood Glucose Level, Week 0 / Fasting Blood Glucose Level, Week 1 / Fasting Blood Glucose Level, Week 2 / Fasting Blood Glucose Level, Week 3 / Fasting Blood Glucose Level, Week 4: compounds 100 mg/kg, n = 6; for Fasting Blood Glucose Level, Week 1 / Fasting Blood Glucose Level, Week 2 / Fasting Blood Glucose Level, Week 3 / Fasting Blood Glucose Level, Week 4: glibenclamide 10 mg/kg daily. The format is in vivo, rat. As for the experimental part:
Adult male albino rats of Sprague-Dawley rats (180–220 g) were obtained from the Guangdong Medical Lab Animal Center, and maintained under standard laboratory conditions in a temperature (25–30 °C) and light-controlled (12-h light/dark cycle) room with 35%–60% humidity. The animals were acclimatized for 10 days before the experiments and provided with rodent chow and water ad libitum. The investigation was conducted in accordance with the Guide for the Care and Use of Laboratory Animals and approved by the institutional Animal Ethics Committee.
(§1) Diabetes was induced by a single intraperitoneal injection of streptozotocin (Sigma-Aldrich, St. Louis, MO, USA) at a dose of 65 mg/kg body weight. STZ was dissolved in 0.1 M cold citrate buffer, pH 4.5. Control group were injected with citrate buffer alone. After 7 days for the development of diabetes, plasma glucose levels were determined of each rat. Rats with fasting blood glucose (FBG) range of above 16.7 mmol/L were considered as DM rats and were used for further study.
(§2) According to the body weight and plasma glucose levels the rats were divided randomly into seven groups with six rats each and treated as follows: • Group I: Normal rats treated with 0.5% CMC-Na (2 mL/200 g body weight). • Group II: Diabetic rats treated with 0.5% CMC-Na. • Group III: Diabetic rats treated with 10 mg/kg of glibenclamide. • Group IV: Diabetic rats treated with 100 mg/kg of compound 1 (UA). • Group V: Diabetic rats treated with 100 mg/kg of compound 10. • Group VI: Diabetic rats treated with 100 mg/kg of compound 11. • Group VII: Diabetic rats treated with 100 mg/kg of compound 12.
(§3) The treatment was continued daily for 28 days. Blood glucose levels and body weight were measured every week to ascertain the status of diabetes. After 4 weeks of treatment, the animals were fasted for 12 h and sacrificed by cervical dislocation under mild anaesthetization, blood was collected into heparinized tubes and centrifuged at 2,000 rpm for 10 min. Livers and kidneys were removed, washed and homogenized in ice-cold normal saline. This homogenates were centrifuged at 3,000 rpm for 10 min at 4 °C, and the supernatants were collected for the estimate of antioxidant markers.
(§4) Fasting blood glucose levels were estimated on days 0, 7, 14, 28 with the single touch glucometer (Life Scan, Johnson & Johnson Company, New Brunswick, NJ, USA). Serum insulin level was measured by use of a commercial immunoassay kit by enzyme linked immunosorbent assay (Uscn. Life Science Inc., Wuhan, China). Serum total protein, albumin, triglycerides (TG), total cholesterol (TC), high-density lipoprotein cholesterol (HDL-C), and low-density lipoprotein cholesterol (LDL-C) were measured with an automatic biochemical analyzer (Sinnowa D240, Nanjing, China).

Assay [4] concerns STZ-induced diabetic rats. As to the kind of experiment: Serum biochemical parameters (insulin, total protein, albumin) in STZ-induced diabetic rats. Format: in vivo, rat. Conditions: 4 weeks, compounds 100 mg/kg, glibenclamide 10 mg/kg. As for the experimental part: as §1, §2, §3, §4
Assay [5] relates to STZ-induced diabetic rats. Put plainly: Body weight and daily food intake of STZ-induced diabetic rats. Format: in vivo, rat. Conditions: compounds 100 mg/kg, glibenclamide 10 mg/kg, oral. As for the experimental part:
as §1, §2, §3

Assay [6] concerns STZ-induced diabetic rats. As to the kind of experiment: Serum lipid profile (TG, TC, LDL-C, HDL-C) in STZ-induced diabetic rats. Format: in vivo, rat. Conditions: 4 weeks, compounds 100 mg/kg, glibenclamide 10 mg/kg. As for the experimental part: as §1, §2, §3, §4
Assay [7] deals with STZ-induced diabetic rats. As to the kind of experiment: Oxidative stress markers (GSH, SOD, MDA) in liver and kidney of STZ-induced diabetic rats. Format: in vivo, rat. The settings on record: 4 weeks; for MDA level in the liver: daily administration. The method, then: as §1, §2, §3
The tissue homogenates of liver and kidney were used for the estimate of antioxidant markers. Glutathione (GSH) level was measured with 5, 5'-dithiobis-(2-nitrobenzoic acid) (DTNB) as described by Sedlak and Lindsay. Superoxide dismutase (SOD) activity was assessed according to the method of Sinha. Malondialdehyde (MDA) activity was estimated with the thiobarbituric acid method.

Where [8] appears, read: STZ diabetic rats, glibenclamide 10 mg/kg.

In the case of `O=C(CCc1ccc(O)cc1)c1c(O)cc(O)cc1O[C@@H]1O[C@H](CO)[C@@H](O)[C@H](O)[C@H]1O` [Phlorizin, reference compound], the inhibition (in general, how much of the control response was suppressed) at 100 µM with Caco-2 cells [1] came to 7.7 ± 3.91%. Moreover, the “glucose uptake, % of the control value (Na+-independent)” value with Caco-2 cells [2] is on record as 75 % of the control value.

With `CC(=O)O[C@H]1CC[C@@]2(C)C(CC[C@]3(C)C2CC=C2C4[C@@H](C)[C@H](C)CC[C@]4(C(=O)Nc4ccc(Br)cc4)CC[C@]23C)C1(C)C` (some centres unmarked) [Compound 5], in the assay on Caco-2 cells [1], the inhibition at 100 µM is 8.72 ± 1.18%.

Turning to `CC(=O)O[C@H]1CC[C@@]2(C)C(CC[C@]3(C)C2CC=C2C4[C@@H](C)[C@H](C)CC[C@]4(C(=O)O)CC[C@]23C)C1(C)C` (some centres unmarked) [Compound 9], in the assay on Caco-2 cells [1], the inhibition at 100 µM came to 4.4 ± 3.09%.

As to `COc1ccc(Cl)cc1C(=O)NCCc1ccc(S(=O)(=O)NC(=O)NC2CCCCC2)cc1` [Glibenclamide, reference compound], the “Fasting Blood Glucose Level, Week 0” value in assay [3] (setting [8]) worked out at 338.40 ± 16.38 mg/dL. In addition, in assay [3] (STZ diabetic rats), the “Fasting Blood Glucose Level, Week 1” value came to 271.80 ± 18.36 mg/dL; the “Fasting Blood Glucose Level, Week 2” value is on record as 183.60 ± 11.70 mg/dL; the “Fasting Blood Glucose Level, Week 3” value came out at 216.00 ± 9.72 mg/dL; the “Fasting Blood Glucose Level, Week 4” value is recorded as 203.40 ± 13.50 mg/dL. In addition, the “decrease in blood glucose levels as compared with diabetic control” value in assay [3] (end of the 4 week treatment, compound 10 100 mg/kg, glibenclamide 10 mg/kg) was 54.4%. In addition, in assay [4], the “serum albumin level vs diabetic control” value was “increased significantly”, the “serum insulin level vs diabetic control” value was “increased significantly” and the “serum total protein level vs diabetic control” value was “increased significantly”. Besides, the “daily food intake vs untreated diabetic rats” value in assay [5] is listed as “reduce daily food intake significantly”. Moreover, in assay [6], the “serum TC level vs diabetic control” value is “significantly decreased” and the “serum TG level vs diabetic control” value is listed as “significantly decreased”. For the same compound, the “SOD level in the liver and kidney” value in assay [7] (liver and kidney of STZ diabetic rats) is recorded as “great improvement”. Besides, in assay [7] (liver of STZ diabetic rats), the “GSH level in liver” value is recorded as “significant effects” and the “MDA level in the liver” value is on record as “obviously down-regulated”.

For the compound `C[C@H]1[C@H](C)CC[C@]2(C(=O)O)CC[C@]3(C)C(=CC[C@@H]4[C@@]5(C)CC[C@H](O)C(C)(C)[C@@H]5CC[C@]43C)[C@H]12` [Compound 1, Ursolic acid], the inhibition at 100 µM in the assay on Caco-2 cells [1] came out at 9.88 ± 6.51%. Besides, the “effect on lowering fasting blood glucose levels” value in assay [3] (STZ diabetic rats, 100 mg/kg, 4 weeks) is reported as “no significant effect”. Moreover, the “Fasting Blood Glucose Level, Week 0” value in assay [3] (setting [8]) stood at 342.00 ± 19.08 mg/dL. Further, in assay [3] (STZ diabetic rats), the “Fasting Blood Glucose Level, Week 1” value came to 405.00 ± 17.46 mg/dL; the “Fasting Blood Glucose Level, Week 2” value came out at 392.40 ± 13.32 mg/dL; the “Fasting Blood Glucose Level, Week 3” value is given as 379.80 ± 19.44 mg/dL; the “Fasting Blood Glucose Level, Week 4” value was determined as 396.00 ± 16.92 mg/dL. In assay [4], the “serum albumin level vs diabetic control” value was “no appreciable improvement”, the “serum insulin level vs diabetic control” value was “non-significant effect” and the “serum total protein level vs diabetic control” value is reported as “no appreciable improvement”. In addition, the “daily food intake vs untreated diabetic rats” value in assay [5] is recorded as “no obvious decrease”. Besides, the “GSH level in kidney” value in assay [7] (kidney of STZ diabetic rats) is given as “great effect”. The “MDA level in the liver” value in assay [7] (liver of STZ diabetic rats) is on record as “obviously down-regulated”.

For `CC(=O)O[C@H]1CC[C@@]2(C)C(CC[C@]3(C)C2CC=C2C4[C@@H](C)[C@H](C)CC[C@]4(C(=O)Nc4ccc(Cl)cc4)CC[C@]23C)C1(C)C` (some centres unmarked) [Compound 4], the inhibition at 100 µM in the assay on Caco-2 cells [1] is 8.53 ± 5.69%.

Turning to `O=C(CCc1ccc(O)cc1)c1c(O)cc(O)cc1O` [Phloretin, reference compound], in the assay on Caco-2 cells [1], the inhibition at 100 µM was determined as 4.7 ± 2.59%.

For `CC(=O)O[C@H]1CC[C@@]2(C)C(CC[C@]3(C)C2CC=C2C4[C@@H](C)[C@H](C)CC[C@]4(C(=O)Nc4ccccc4)CC[C@]23C)C1(C)C` (some centres unmarked) [Compound 2], the inhibition at 100 µM with Caco-2 cells [1] came out at 5.02 ± 2.38%.

Regarding `CC(=O)O[C@H]1CC[C@@]2(C)C(CC[C@]3(C)C2CC=C2C4[C@@H](C)[C@H](C)CC[C@]4(C(=O)Nc4ccccc4Br)CC[C@]23C)C1(C)C` (some centres unmarked) [Compound 8], the inhibition at 100 µM in the assay on Caco-2 cells [1] stood at 9.86 ± 2.68%.

For `CC(=O)O[C@H]1CC[C@@]2(C)C(CC[C@]3(C)C2CC=C2C4[C@@H](C)[C@H](C)CC[C@]4(C(=O)Nc4ccc(F)cc4)CC[C@]23C)C1(C)C` (some centres unmarked) [Compound 3], in the assay with Caco-2 cells [1], the inhibition at 100 µM worked out at 8.65 ± 3.49%.

Take `CC(=O)O[C@H]1CC[C@@]2(C)C(CC[C@]3(C)C2CC=C2C4[C@@H](C)[C@H](C)CC[C@]4(C(=O)Nc4ccccc4Cl)CC[C@]23C)C1(C)C` (some centres unmarked) [Compound 7]: the inhibition at 100 µM with Caco-2 cells [1] is 8.14 ± 3.81%.
